# Measurements: US11850313B2, “Method and compositions for protecting tissue” (The London Health Sciences Centre Research Inc., priority 2019, dated 2023)
# What was measured:
# DCD porcine kidneys [1] = assay: Ex vivo subnormothermic perfusion of DCD porcine kidneys with Hemopure® at 21° C. followed by blood-free reperfusion at 37° C.; design: species or system Pigs; conditions: for tissue oxygenation during preservation: 21° C., vs SCS (FIG. 4A); for urine output during preservation: 4 h perfusion at 21° C., vs Hemopure® alone (FIG. 3A)
# Source text: Pigs weighing 55-65 kg were used for this study. The animals were maintained in accordance with the Committee on the Care and Use of Laboratory Animals appointed by the National Research Council. The animals were housed at the animal facility in the West Valley Building, which is managed by the Animal Care and Veterinary Services Department at The University of Western Ontario. The experimental protocol and housing conditions followed the guidelines of the university's Animal Care Committee and the Canadian Council on Animal Care.
# (§1) Pigs were tranquilized prior to transport to the Canadian Surgical Technologies & Advanced Robotics facility (CSTAR, University Hospital, London, Canada). Upon arrival at CSTAR, the animals were prepared for surgery as per SOP. A midline incision was used to expose the kidneys. The right and left kidneys with their ureters were dissected free from the retro peritoneum while leaving the blood supply to the ureter intact and then the ureter was divided. The renal vascular pedicles were left as long as possible by freeing the renal artery and vein up to the aorta and vena cava. The pedicles were clamped for 30 minutes to induce warm ischemia in the donor organs following intravenous infusion of 10000 units of heparin. The injury inflicted is likely greater than that of conventional DCD kidneys after withdrawal of life support as the blood supply is cutoff completely by clamping, which is more harmful than the gradual ischemic injury that occurs during cardiac death. Subsequently, nephrectomies of the left and right kidney were performed and the donor animal was euthanized. All the surgeries were performed by transplant fellows at University Hospital, London, Ontario, Canada.
# The kidneys were randomly assigned to one of five preservation treatments. The first group of kidneys were flushed with and stored in HTK solution on ice for 4 h (SCS), which reflects the current clinical standard of care for organ preservation. The second group of kidneys were flushed with HTK solution and treated to 4 h of subnormothermic perfusion at 21° C. with Hemopure®. The third group of kidneys were flushed with HTK solution supplemented with 200 nM AP39 and treated to 4 h of subnormothermic perfusion at 21° C. with Hemopure® supplemented with 200 nM AP39. The fourth group of kidneys were flushed with HTK solution supplemented with 1 μM AP39 and treated to 4 h of subnormothermic perfusion at 21° C. with Hemopure® supplemented with 1 μM AP39. The fifth group of kidneys were flushed with HTK solution supplemented with 150 μM STS and treated to 4 h of subnormothermic perfusion at 21° C. with Hemopure® supplemented with 150 μM STS. After the 4 h preservation period, all kidneys were perfused with Hemopure® for 4 h at 37° C. with nutrients to simulate reperfusion after renal transplantation. The kidneys were perfused using an ex vivo perfusion apparatus (FIG. 4). The perfusion pressure was maintained at 50 mmHg. Hemopure® samples were analyzed hourly. The perfusate was oxygenated using an external mixed air supply (35% O2, 2 L/min). After reperfusion with stressed blood, kidneys were bivalved sagittally. One half was stored at −80° C. for mechanistic analyses and the other half was stored in formalin for histopathological analyses.
# Hemopure® and urine samples were collected hourly during the 4 h preservation perfusion and during the 4 h reperfusion to evaluate graft function over time. Electrolyte levels, lactate levels and gas levels in the perfusate were measured hourly using the iSTAT point-of-care testing system. Hourly urine output was recorded, and total urine samples were also collected from both perfusion periods. Pictures of the kidney, urine bags and flow and pressure readings were taken hourly. Tissue oxygenation was also measured hourly. During both perfusion periods, we closely monitored pump parameters (flow and pressure) to ensure optimal graft function. […]
# [2] = 500 ppm; cited from earlier work
# DCD porcine kidneys [3] = assay: Ex vivo perfusion of DCD porcine kidneys with autologous blood (SMP/NMP), then reperfusion with stressed blood at 37° C.; design: species or system Pigs
# Experimental: as §1, with “3000” for “10000”, “All the surgeries were performed by transplant fellows at University Hospital, London, Ontario, Canada.” left out
# The kidneys were randomly assigned to one of four preservation treatments. […] Blood, urine and tissue samples were collected and analyzed as described in the next subsection.
# Blood and urine samples were collected hourly during the 4 h preservation perfusion with non-stressed blood and during the 4 h reperfusion with stressed blood to evaluate graft function over time. Hourly urine output was recorded, and total urine samples were also collected from both perfusion periods. Pictures of the kidney, urine bags and blood flow and pressure readings were taken hourly. […] During the perfusion periods, we closely monitored pump parameters (flow and pressure) to ensure optimal graft function. […] The total TUNEL+ area (%) was quantified for 10 random fields of view for 2 kidney samples per treatment group using ImageJ software v 1.50 (National Institutes of Health, USA). The total tubular area and TUNEL+ tubular area, used to calculate the TUNEL+ area (%), were determined by adjusting the brightness and saturation thresholds. […]
# donor kidneys = assay: Static cold storage (4° C.) of donor kidneys in UW solution supplemented with AP39; conditions: AP39 added to UW / cold preservation solution, applicant's earlier work
# [4] = tested on: oxidatively stressed endothelial cells; conditions: including protection against oxidative mitochondrial DNA damage; cited from earlier work
# kidney = conditions: AP39 supplementation of UW solution, 21° C.; cited from earlier work
structure (smiles),measurement,setting,value
"O.O.O.O.O.O=S([O-])([O-])=S.[Na+].[Na+] [STS, sodium thiosulfate (STS) pentahydrate]",tissue oxygenation during preservation,DCD porcine kidneys [1]; 150 μM STS in Hemopure®,higher tissue oxygenation than SCS
same,urine output during preservation,DCD porcine kidneys [1]; 150 μM STS in Hemopure®,significantly higher
"S [H2S, Hydrogen sulfide]",effect of exposure to extreme levels,[2],sudden collapse and unconsciousness
O=C(CCCCCCCCC[P+](c1ccccc1)(c1ccccc1)c1ccccc1)Oc1ccc(-c2cc(=S)ss2)cc1.[Br-] [AP39],tissue oxygenation during preservation,DCD porcine kidneys [1]; 200 nM AP39 in Hemopure®,higher tissue oxygenation than SCS
same,urine output during preservation,DCD porcine kidneys [1]; 200 nM AP39 in Hemopure®,significantly higher
same,apoptotic tissue injury (TUNEL score),"DCD porcine kidneys [1]; 200 nM AP39 in Hemopure®, after reperfusion, vs Hemopure® and Hemopure®+1 μM AP39 (FIGS. 6A-6F)",reduced apoptotic tissue injury
same,urine output during preservation,DCD porcine kidneys [1]; 1 μM AP39 in Hemopure®,significantly higher
same,urine output during reperfusion,"DCD porcine kidneys [1]; preserved with 200 nM AP39 in Hemopure® at 21° C., 4 h reperfusion at 37° C., vs Hemopure® kidneys (FIG. 3B)",significantly higher
same,urine output during 4 h of preservation,"DCD porcine kidneys [3]; 200 nM AP39 in non-stressed blood at 21° C. (SMP-AP39-21C), vs SMP-21C and NMP-37C (FIG. 9A)",significantly higher
same,graft function,"DCD porcine kidneys [3]; AP39-supplemented blood at 21° C., vs cold storage in UW and perfusion with only blood at 21° C. and 37° C.",improves graft function
same,urine output during 4 h of reperfusion with stressed blood,"DCD porcine kidneys [3]; preserved with SMP-AP39-21C, vs SCS-4C, SMP-21C, NMP-37C (FIG. 9B)",significantly higher
same,graft outcomes,donor kidneys,improves renal graft outcomes
same,protective effect under oxidative stress conditions,[4],cryoprotective effect
same,kidney preservation,kidney,improves kidney preservation
